Assay results: patent US20110020843A1, “LABEL-FREE METHODS RELATED TO PHOSPHODIESTERASES” (priority 2009, published 2011)

Legend:
[1] = system: quiescent A431 cells (endogenous PDE4 isoforms); assay: Label-free Epic RWG biosensor DMR assay of PDE inhibitors in synchronized quiescent A431 cells; assay type: cell-based, human; settings: A431; 10 micromolar; ultra-high confluent cells, 2 hrs in low CO2 (~2%) (FIG. 12A)
Protocol: Cells were typically grown using ˜1 to 2×10^4 cells per well at passage 3 to 15 suspended in 50 μl of the corresponding culture medium in the biosensor microplate, and were cultured at 37° C. under air/5% CO2 for ˜1 day. Except for A431 which was subject to ˜20 hr starvation through continuously culture in the serum-free DMEM, the other cell types were directly assayed without starvation.
Epic® wavelength interrogation system (Corning Inc., Corning, N.Y.) was used for whole cell sensing. This system consists of a temperature-control unit, an optical detection unit, and an on-board liquid handling unit with robotics. The detection unit is centered on integrated fiber optics, and enables kinetic measures of cellular responses with a time interval of ˜15 sec. The compound solutions were introduced by using the on-board liquid handling unit (i.e., pippetting).
The RWG biosensor is capable of detecting minute changes in local index of refraction near the sensor surface. Since the local index of refraction within a cell is a function of density and its distribution of biomass (e.g., proteins, molecular complexes), the biosensor exploits its evanescent wave to non-invasively detect ligand-induced dynamic mass redistribution in native cells. The evanescent wave extends into the cells and exponentially decays over distance, leading to a characteristic sensing volume of ˜150 nm, implying that any optical response mediated through the receptor activation only represents an average over the portion of the cell that the evanescent wave is sampling. The aggregation of many cellular events downstream the receptor activation determines the kinetics and amplitudes of a ligand-induced DMR.
All studies were carried out at a controlled temperature (28° C.). At least two independent sets of experiments, each with at least three replicates, were performed.
We further examined the DMR signal, if any, of the quiescent A431 cells upon treatment with PDE inhibitors. […] The quiescent A431 cells obtained under the same culture condition were used. Here the initial seeding numbers of cells were relatively low (˜20K cells per well in a 384 well Epic biosensor microplate tissue culture treated). […] After washing with the serum free medium, the cells were continuously cultured in the serum free medium for another 24 hrs to reach a quiescent state. Here the quiescent state was largely achieved through serum withdrawl. […] The cell membrane bound carbonic anahydrase is a known sensor for CO2 level.
In FIG. 4 the quiescent cells were achieved primarily through serum withdrawl. We were interested in the quiescent cells achieved through both contact inhibition and serum withdrawl. To do so, much higher initial seeding numbers of cells (>=25k cells per well for the 384 well Epic biosensor microplate) were used. […] Here both quiescent cells were subject to the same synchronization condition (2 hr incubation in the HBSS assay solution in a low CO2 environment).
Here the quiescent A431 cells were used using 22k cells per well in 384 well Epic biosensor microplates, followed by one day (˜24 hrs) culture in serum medium and 1 day (˜24 hrs) serum free medium, and sequential synchronization in the HBSS buffer solution under a relatively low CO2 environment for 2 hrs. […] For comparison, the DMR signal of cells stimulated with the buffer only (“Vehicle”) were included.

A549 cells = assay: DMR modulation index against panel of markers in A549 cells; assay type: cell-based, human
Description: 191. To characterize the polypharmacology including PDE4 inhibitory activity of compounds, we used the known EGFR inhibitor tyrphostin 51 as an example. Quiescent A431 and proliferating A549 cells were separately exposed to tyrphostin 51 at 10 micromolar for about 1 hr to generate its primary profiles, followed by stimulation with each marker at a fixed concentration for another 1 hr or so to generate secondary profiles of the tyrphostin 51 against the panels of markers in both types of cells. Next, one or more specific DMR parameters were chosen as a readout for plotting the DMR index of the molecule.
193. The second panel of markers was contacted with A549 cells at concentrations close to each of the marker's EC80 or EC100, and DMR measurements were obtained with and EPIC® system. This panel included poly(I:C), SLIGKV-amide, pinacidil, PMA, histamine, and forskolin. Each of these markers also leads to a wide array of cell signaling. Using Epic® cellular assays in conjunction with chemical biology and cell biology approach similar to the EGFR DMR mentioned above, we have determined the pathway(s) and network interaction(s) that is accounted for each marker-induced DMR signal in A549 cells. The main observations are summarized below. Poly(I:C) is an agonist for endogenous Toll-like receptor(s) in A549, whose activation leads to IKK pathway and AKT pathway. SLIGKV-amide is an agonist for endogenous protease activated receptor subtype 2 (PAR2) in A549, whose activation leads to Gq-, Gi- and G12/13-mediated signaling. Pinacidil is an opener for endogenous ATP-sensitive potassium (KATP) ion channel in A549, whose activation leads to Rho- and JAK-mediated signaling. PMA is an activator for protein kinase C(PKC), whose activation leads to PKC pathway and degranulation. Histamine is a natural agonist for endogenous histamine receptors (dominantly H1R, and possibly H3R), whose activation leads to dual signaling, possibly through Gq and Gi mediated signaling in A549. Forskolin is an activator for adenylyl cyclases, whose activation leads to cAMP-PKA pathway in A549. […] Each DMR signal represents an averaged response of 4 replicates.
194. For the pinacidil DMR response in A549, the amplitude of the N-DMR (i.e., the amplitude 30 min after stimulation) was chosen. For the poly(I:C) DMR response in A549, the amplitude of the late DMR (i.e., the amplitude 50 min after stimulation) was chosen. For the PMA response in A549, the late DMR amplitude (i.e., the amplitude 50 min after stimulation) was chosen. For the SLIGKV-amide DMR response in A549, the P-DMR amplitude (i.e., the amplitude 20 min after stimulation) was chosen. For the forskolin response in A549 cells, the P-DMR amplitude (i.e., the amplitude 50 min after stimulation) was chosen. For the histamine response in A549, both the early DMR amplitude (i.e., amplitude 10 min after stimulation) and the late response (i.e., the amplitude 30 min after stimulation) were chosen. For the epinephrine response in A431, the P-DMR amplitude (i.e., the amplitude 50 min after stimulation) was chosen. For the nicotinic acid DMR in A431, the P-DMR amplitude (i.e., the amplitude 3 min after stimulation) was chosen. For the EGF DMR in A431, both the P-DMR (i.e., the amplitude 4 min after stimulation) and N-DMR amplitudes (i.e., the decaying amplitude between 4 min and 40 min after simulation) were chosen. For the histamine response in A431, the P-DMR amplitude (i.e., the amplitude 3 min after stimulation) was chosen. The percentage of modulation of the marker against each marker was calculated by normalizing the secondary profile of the molecule against the marker in the cell to the primary profile of the same marker acting on the same cell.

[2] = 10 micromolar pretreatment ~1 hr

N#CC(C#N)=C(N)/C(C#N)=C/c1cc(O)c(O)c(O)c1 [tyrphostin 51]
primary DMR profile [1]: closely resembled the classic Gs-DMR signals | modulation of PMA DMR (late DMR amplitude 50 min) (A549 cells; [2]): −6% | modulation of SLIGKV-amide DMR (P-DMR amplitude 20 min) (A549 cells; [2]): 0% | modulation of forskolin DMR (P-DMR amplitude 50 min) (A549 cells; [2]): −23% | modulation of histamine early response (amplitude 10 min) (A549 cells; [2]): +6% | modulation of histamine late response (amplitude 30 min) (A549 cells; [2]): 0% | modulation of poly(I:C) DMR (late DMR amplitude 50 min) (A549 cells; [2]): +5% | effect of pretreatment on forskolin DMR signal (A549 cells; FIG. 12C): partially attenuated | modulation of pinacidil DMR (N-DMR amplitude 30 min) (A549 cells; tyrphostin 51 at 10 micromolar pretreatment ~1 hr): 0%
